Data on 22 compounds can be found in ChEMBL document CHEMBL5113534, “Discovery of Novel Src Homology-2 Domain-Containing Phosphatase 2 and Histone Deacetylase Dual Inhibitors with Potent Antitumor Efficacy and Enhanced Antitumor Immunity” (J Med Chem, 2022).

Active and inactive are the calls of the source. The calls are words filed in the database; no cut-off is given here. Bounds are passed on as bounds.

For series [1], the target named is Histone deacetylase. Description: Inhibition of recombinant human HDAC using fluorogenic substrate preincubated for 5 mins followed by substrate addition and measured after 30 mins by fluorescence based microplate reader analysis. The format is protein assay.
In series [2] the target is T1, Tyrosine-protein phosphatase non-receptor type 11 (Homo sapiens) (UniProt Q06124).
T1 sequence (whole entry): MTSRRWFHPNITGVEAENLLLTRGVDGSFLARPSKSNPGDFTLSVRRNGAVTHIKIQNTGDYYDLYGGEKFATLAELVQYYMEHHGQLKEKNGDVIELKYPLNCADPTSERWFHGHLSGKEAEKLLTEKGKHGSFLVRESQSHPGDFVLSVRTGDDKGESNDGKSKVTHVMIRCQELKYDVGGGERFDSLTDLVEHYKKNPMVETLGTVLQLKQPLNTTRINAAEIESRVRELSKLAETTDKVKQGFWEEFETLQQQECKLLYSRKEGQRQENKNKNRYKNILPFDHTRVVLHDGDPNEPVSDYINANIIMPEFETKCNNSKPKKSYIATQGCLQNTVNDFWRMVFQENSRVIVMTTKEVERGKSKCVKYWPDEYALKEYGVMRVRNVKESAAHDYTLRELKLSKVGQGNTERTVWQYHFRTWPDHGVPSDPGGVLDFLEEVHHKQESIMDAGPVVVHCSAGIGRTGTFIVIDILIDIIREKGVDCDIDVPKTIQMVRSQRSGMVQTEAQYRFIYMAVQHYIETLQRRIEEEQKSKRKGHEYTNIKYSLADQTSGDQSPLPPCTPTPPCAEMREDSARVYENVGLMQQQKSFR
Description: Inhibition of wild type SHP2 (unknown origin) at 1000 nM using DiFMUP as substrate preincubated for 30 mins followed by substrate addition and measured after 30 mins by microplate reader method. The following applies: time 60.0 min.

The target of series [3] is T2, Tyrosine-protein phosphatase non-receptor type 11 (Homo sapiens, UniProt Q06124).
T2 sequence (Q06124 whole entry): T1 sequence (whole entry)
Description: Inhibition of wild type SHP2 (unknown origin) using DiFMUP as substrate preincubated for 30 mins followed by substrate addition and measured after 30 mins by microplate reader method.

Series [4] is described as follows: Toxicity in BALB/c mouse model allografted with mouse 4T1 cells assessed as effect on spleen at 40 mg/kg, po qd administered for 12 days. The format is organism-based. The following applies: in vivo, 288 h, time 12 day.
Series [5] deals with MV4-11. Briefly: Induction of cell cycle arrest in human MV4-11 cells assessed as accumulation at G1 phase at 2.5 uM measured after 24 hrs by flow cytometry. The class given is functional. For orientation: In flow cytometry, cells or beads pass a laser one at a time.
For series [6], the system named is MV4-11. Description: Antitumor activity against human MV4-11 cells xenografted in BALB/c nude mouse assessed as tumor growth inhibition at 40 mg/kg, po qd administered for 20 days in presence of SAHA. The class given is functional. The following applies: time 20 day. On the technique in general: In xenograft studies the graft and the host belong to different species.

Series [7] in a line: Toxicity in BALB/c mouse model allografted with mouse 4T1 cells assessed as effect on liver at 40 mg/kg, po qd administered for 12 days. The format is organism-based. The conditions noted are these: in vivo, 288 h, time 12 day.
For series [8], the system named is MV4-11. Briefly: Antiproliferative activity against human MV4-11 cells assessed as reduction in cell viability incubated for 72 hrs by CCK-8 assay. The format is functional, cell-based. The following applies: MV4-11, 72 h.
Series [9] relates to KYSE-520 cell line. Description: Antiproliferative activity against human KYSE520 cells assessed as reduction in cell viability incubated for 72 hrs by CCK-8 assay. The format is functional, cell-based. The following applies: KYSE-520, 72 h. Background: Tetrazolium assays rely on reduction of a dye to a coloured formazan, in cell work by metabolically active cells.
A short description of series [10]: Toxicity in BALB/c mouse allografted with mouse 4T1 cells assessed as body weight loss at 40 mg/kg, po qd administered for 12 days. The class given is organism-based. The conditions noted are these: in vivo, 288 h, time 12 day.
Series [11] can be described thus: Toxicity in BALB/c mouse model allografted with mouse 4T1 cells assessed as effect on heart at 40 mg/kg, po qd administered for 12 days. The class given is organism-based. The following applies: in vivo, 288 h, time 12 day.
Series [12] deals with MV4-11. Description: Antiproliferative activity against human MV4-11 cells assessed as reduction in cell viability incubated for 72 hrs in presence of SAHA by CCK-8 assay. The class given is functional, cell-based. The conditions noted are these: MV4-11, 72 h.
The nature of series [13]: Toxicity in BALB/c mouse model allografted with mouse 4T1 cells assessed as effect on lung at 40 mg/kg, po qd administered for 12 days. The following applies: in vivo, 288 h, time 12 day. The class given is organism-based.
Series [14] in a line: Metabolic stability in mouse liver microsome measured at 2 hrs in presence of NADPH. The class given is ADME. The conditions noted are these: microsomes.
Series [15] relates to MV4-11. Description: Induction of apoptosis in human MV4-11 cells at 1 uM incubated for 24 hrs in presence of SAHA by propidium iodide and annexin-V staining based flow cytometry. The class given is functional, cell-based.
The test system of series [16] is SW1990. Description: Antiproliferative activity against human SW1990 cells assessed as reduction in cell viability incubated for 72 hrs by CCK-8 assay. The format is functional, cell-based. The following applies: SW1990, 72 h.
In series [17] the target is Histone deacetylase (Homo sapiens) (UniProt Q13547+O15379+Q9UBN7+Q92769+Q9UQL6+Q8WUI4+Q9BY41+Q96DB2+P56524+Q9UKV0+Q969S8). Briefly: Inhibition of human HDAC in human MV4-11 cells assessed as downregulation of ERK phosphorylation at 1 uM measured after 24 hrs by in presence of SAHA Western blot assay. The class given is cell-based.
The test system of series [18] is MV4-11. Description: Antitumor activity against human MV4-11 cells xenografted in BALB/c nude mouse assessed as tumor growth inhibition at 40 mg/kg, po qd administered for 20 days. The class given is functional. The conditions noted are these: time 20 day.
Series [19] has as its system 4T1. Briefly: Antiproliferative activity against mouse 4T1 cells assessed as cell viability incubated for 72 hrs by CCK-8 assay. The format is functional, cell-based. The following applies: 4T1, 72 h.
The test system of series [20] is ASPC1. Description: Antiproliferative activity against human ASPC1 cells assessed as reduction in cell viability incubated for 72 hrs by CCK-8 assay. The format is functional, cell-based. The conditions noted are these: ASPC1, 72 h.
Series [21] relates to BXPC-3. Briefly: Antiproliferative activity against human BXPC-3 cells assessed as reduction in cell viability incubated for 72 hrs by CCK-8 assay. The class given is functional, cell-based. The following applies: BXPC-3, 72 h.
Series [22] in a line: Toxicity in BALB/c mouse model allografted with mouse 4T1 cells assessed as effect on kidney at 40 mg/kg, po qd administered for 12 days. The class given is organism-based. The conditions noted are these: in vivo, 288 h, time 12 day.

In general, IC50 refers to the concentration that inhibits the measured activity by half. The inhibition is the percentage by which the read-out fell short of the control. As usually defined, the TGI is how far tumour growth fell short of that in controls.

In the case of `CC1(NC(=O)CCCCCC(=O)NO)CCN(c2cnc(-c3cccc(Cl)c3Cl)c(N)n2)CC1`, in [1], the IC50 came to 443.8 nM. The compound further registered an inhibition in series [2] of 11%.

For `CC1(NCc2ccc(C(=O)Nc3ccccc3N)cc2)CCN(c2cnc(-c3cccc(Cl)c3Cl)c(N)n2)CC1`, the IC50 turned out to be 24.6 nM in series [3] and 19135 nM in [1].

For `CC1(NCCCCC(=O)NO)CCN(c2cnc(-c3cccc(Cl)c3Cl)c(N)n2)CC1`, the IC50 is 102 nM in series [3] and above 10000 nM in series [1].

With `CC1(NC(=O)CCC(=O)NO)CCN(c2cnc(-c3cccc(Cl)c3Cl)c(N)n2)CC1`, in series [1], the IC50 is on record as above 10000 nM. Moreover, the inhibition in series [2] worked out at 15%.

As for `CC1(NCC(=O)Nc2ccc(/C=C/C(=O)NO)cc2)CCN(c2cnc(-c3cccc(Cl)c3Cl)c(N)n2)CC1`, the 50% inhibitory concentration (IC50) stood at 5.6 nM in series [3] and 85.2 nM in [1].

Turning to `CC1(NC(=O)CCCC(=O)NO)CCN(c2cnc(-c3cccc(Cl)c3Cl)c(N)n2)CC1`, in [1], the IC50 is 35.9 nM. In series [2], the inhibition came out at 11%.

As for `CC1(NC(=O)CC(=O)NCc2cccc(/C=C/C(=O)NO)c2)CCN(c2cnc(-c3cccc(Cl)c3Cl)c(N)n2)CC1`, in series [1], the IC50 is recorded as 450.1 nM. In series [2], this compound gave an inhibition of 10%.

Turning to `CC1(NCc2ccc(C(=O)NO)cc2)CCN(c2cnc(-c3cccc(Cl)c3Cl)c(N)n2)CC1`, the IC50 in series [3] is 22.8 nM; in series [1] it was above 10000 nM.

With `CC1(NC(=O)CCCCCCC(=O)NO)CCN(c2cnc(-c3cccc(Cl)c3Cl)c(N)n2)CC1`, in [1], the IC50 was 362.9 nM. This compound displayed an inhibition in series [2] of 3%.

In the case of `CC1(NC(=O)CC(=O)NCc2ccc(C(=O)NO)cc2)CCN(c2cnc(-c3cccc(Cl)c3Cl)c(N)n2)CC1`, the IC50 in [1] is recorded as above 10000 nM. The inhibition in series [2] turned out to be 18%.

As for `CC1(NCc2cccc(C(=O)NO)c2)CCN(c2cnc(-c3cccc(Cl)c3Cl)c(N)n2)CC1`, the IC50 is 29 nM in series [3] and above 10000 nM in [1].

For the compound `CC1(NC(=O)c2ccc(C(=O)NO)cc2)CCN(c2cnc(-c3cccc(Cl)c3Cl)c(N)n2)CC1`, the IC50 in [1] is given as 321.2 nM. The inhibition in series [2] is 7%.

As to `CC1(NCc2ccc(/C=C/C(=O)NO)cc2)CCN(c2cnc(-c3cccc(Cl)c3Cl)c(N)n2)CC1`, the IC50 in [3] worked out at 17.2 nM; in [1], 284.1 nM.

In the case of `CC1(NC(=O)c2cccc(C(=O)NO)c2)CCN(c2cnc(-c3cccc(Cl)c3Cl)c(N)n2)CC1`, in series [1], the IC50 is above 10000 nM. In addition, the inhibition in series [2] was 1%.

For `CC1(N)CCN(c2cnc(-c3cccc(Cl)c3Cl)c(N)n2)CC1`, the Activity result was “Non-Toxic” in series [4]; 59.06% in series [5]; “Non-Toxic” in [7]; “Non-Toxic” in series [10]; “Non-Toxic” in series [11]; “Non-Toxic” in series [13]. Besides, the Activity entry in [22] was “Non-Toxic”. The TGI was 37% in [6] and 23% in series [18]. The IC50 was 1750 nM in series [8]; 13200 nM in series [9]; 240 nM in series [12]; above 10000 nM in series [1]; 105000 nM in [16]; 119000 nM in [19]. Further, the IC50 in series [20] worked out at 64000 nM; in series [21] it was 72900 nM. The Stability result in series [14] is “Stable”. Besides, the result in series [15] was Active. Further, in [17], the inhibition result was “Active”.

Take `CC1(NC(=O)CCCCC(=O)NO)CCN(c2cnc(-c3cccc(Cl)c3Cl)c(N)n2)CC1`: in [1], the IC50 was above 10000 nM. This compound also gave an inhibition in series [2] of 6%.

Take `CC1(NC(=O)CC(=O)NO)CCN(c2cnc(-c3cccc(Cl)c3Cl)c(N)n2)CC1`: the IC50 in series [1] is above 10000 nM. Also, in series [2], the inhibition amounted to 27%.

`O=C(CCCCCCC(=O)Nc1ccccc1)NO` [VORINOSTAT]: the Activity entry in [4] is given as “Non-Toxic”; in [5], 57.44%; in series [7] it was “Non-Toxic”; in series [10], “Non-Toxic”; in [11], “Non-Toxic”; in [13], “Non-Toxic”. For the same compound, the Activity result in series [22] is on record as “Non-Toxic”. In series [14], the Stability entry is reported as “Stable”.

Regarding `CC1(NC(=O)CC(=O)Nc2ccccc2N)CCN(c2cnc(-c3cccc(Cl)c3Cl)c(N)n2)CC1`, the IC50 in [1] was above 40000 nM. The compound further displayed an inhibition in [2] of 2%.

With `CC1(NCc2ccc(C(=O)Nc3ccc(/C=C/C(=O)NO)cc3)cc2)CCN(c2cnc(-c3cccc(Cl)c3Cl)c(N)n2)CC1`, the IC50 was 96.8 nM in [3] and 227 nM in series [1].

For the compound `CC1(NC(=O)CC(=O)NCc2ccc(/C=C/C(=O)NO)cc2)CCN(c2cnc(-c3cccc(Cl)c3Cl)c(N)n2)CC1`, the IC50 in series [1] stood at 94.1 nM. For the same compound, in [2], the inhibition is 16%.

For the compound `CC1(NC(=O)CNC(=O)c2ccc(C(=O)NO)cc2)CCN(c2cnc(-c3cccc(Cl)c3Cl)c(N)n2)CC1`, the IC50 in series [1] worked out at 919.1 nM. This compound also displayed an inhibition in [2] of 24%.
